Assay results as given in ChEMBL document CHEMBL1121697, “Carbocyclic analogues of 5-fluorouracil nucleosides” (1981).

Legend:
Assay type in all cases: functional
Mus musculus [1] = assay: Life span ratio of mice treated to that of control mice at dose 50 mg/kg, ip; settings: route intraperitoneal
Mus musculus [2] = assay: Average weight change in treated mice to that of control mice on the same day of administration of 50 mg/kg of compound in a q. d. 1-9 schedule
Mus musculus [3] = assay: Number of deaths recorded in mice with P388 leukemia on days 1-5 after intraperitoneal administration of 50 mg/kg of compound in a q.d. 1-9 schedule; 0/6
Mus musculus [4] = species: Mus musculus; assay: Median life span of the treated mice to that of control mice; 11.1/10.9
Mus musculus [5] = assay: Median life span of the treated P388 leukemia mice to that of control mice after intraperitoneal administration of 50 mg/kg of compound in a q.d. 1-9 schedule; 10.5/10.9
Mus musculus [6] = assay: Life span ratio of P388 leukemia mice treated to that of control mice at dose 600 mg/kg, ip; settings: route intraperitoneal
Mus musculus [7] = assay: Median life span of the treated P388 leukemia mice to that of control mice after intraperitoneal administration of 600 mg/kg of compound in a q.d. 1-5 schedule; 13.1/12.0
Mus musculus [8] = assay: Life span ratio of P388 leukemia mice treated to that of control mice at dose 200 mg/kg, ip; settings: route intraperitoneal
Mus musculus [9] = assay: Average weight change in treated P388 leukemia mice to that of control mice on administration of 400 mg/kg of compound in a q. d. 1-5 schedule
Mus musculus [10] = assay: Average weight change in treated L1210 leukemia mice to that of control mice on administration of 100 mg/kg of compound in a q. d. 1-9 schedule
Mus musculus [11] = assay: Average weight change in treated P388 leukemia mice to that of control mice on administration of 50 mg/kg of compound in a q. d. 1-9 schedule
Mus musculus [12] = assay: Median life span of the treated P388 leukemia mice to that of control mice after intraperitoneal administration of 400 mg/kg of compound in a q.d. 1-5 schedule; 14.3/11.9
Mus musculus [13] = assay: Median life span of the treated L1210 leukemia mice to that of control mice after intraperitoneal administration of 100 mg/kg of compound in a q.d. 1-9 schedule; 8.3/8.2
Mus musculus [14] = assay: Median life span of the treated P388 leukemia mice to that of control mice after intraperitoneal administration of 200 mg/kg of compound in a q.d. 1-5 schedule 12.0/11.9
Mus musculus [15] = assay: Number of deaths recorded in mice with P388 leukemia on days 1-5 after intraperitoneal administration of 100 mg/kg of compound in a q.d. 1-9 schedule; 0/6
Mus musculus [16] = assay: Average weight change in treated P388 leukemia mice to that of control mice on administration of 100 mg/kg of compound in a q. d. 1-9 schedule
Mus musculus [17] = assay: Average weight change in treated P388 leukemia mice to that of control mice on administration of 600 mg/kg of compound in a q. d. 1-5 schedule
Mus musculus [18] = assay: Median life span of the treated P388 leukemia mice to that of control mice after intraperitoneal administration of 100 mg/kg of compound in a q.d. 1-9 schedule; 11.4/11.3
Mus musculus [19] = assay: Number of deaths recorded in mice with L-1210 leukemia on days 1-5 after intraperitoneal administration of 100 mg/kg of compound in a q.d. 1-9 schedule; 0/6
Mus musculus [20] = assay: Average weight change in treated P388 leukemia mice to that of control mice on administration of 200 mg/kg of compound in a q. d. 1-5 schedule
Mus musculus [21] = assay: Life span ratio of P388 leukemia mice treated to that of control mice at dose 100 mg/kg, ip; settings: route intraperitoneal
Mus musculus [22] = assay: Life span ratio of P388 leukemia mice treated to that of control mice at dose 50 mg/kg, ip; settings: route intraperitoneal
Mus musculus [23] = assay: Number of deaths recorded in mice with P388 leukemia on days 1-5 after intraperitoneal administration of 600 mg/kg of compound in a q.d. 1-5 schedule; 0/6
Mus musculus [24] = assay: Number of deaths recorded in mice with P388 leukemia on days 1-5 after intraperitoneal administration of 50 mg/kg of compound in a q.d. 1-9 schedule; 0/5
Mus musculus [25] = assay: Number of deaths recorded in mice with P388 leukemia on days 1-5 after intraperitoneal administration of 200 mg/kg of compound in a q.d. 1-5 schedule; 0/6
Mus musculus [26] = assay: Life span ratio of L1210 leukemia mice treated to that of control mice at dose 100 mg/kg, ip; settings: route intraperitoneal
Mus musculus [27] = assay: Life span ratio of P388 leukemia mice treated to that of control mice at dose 400 mg/kg, ip; settings: route intraperitoneal
Mus musculus [28] = assay: Number of deaths recorded in mice with P388 leukemia on days 1-5 after intraperitoneal administration of 400 mg/kg of compound in a q.d. 1-5 schedule; 0/6

O=c1[nH]c(=O)n(C2CC(CO)C(O)C2O)cc1F (stereo not drawn)
T/C (Mus musculus [1]): 101%
Weight change (Mus musculus [2]): 0.9 g
No. of deaths (Mus musculus [3]): 0
Median life span (Mus musculus [4]): 11.1 days

O=c1[nH]c(=O)n([C@H]2C[C@H](O)[C@@H](CO)O2)cc1F [FLOXURIDINE]
Median life span (Mus musculus [5]): 10.5 days
T/C (Mus musculus [6]): 109%
Median life span (Mus musculus [7]): 13.1 days
T/C (Mus musculus [8]): 100%
Weight change (Mus musculus [9]): -0.3 g
Weight change (Mus musculus [10]): -0.5 g
Weight change (Mus musculus [11]): 1 g
Median life span (Mus musculus [12]): 14.3 days
Median life span (Mus musculus [13]): 8.3 days
Median life span (Mus musculus [14]): 12 days
No. of deaths (Mus musculus [15]): 0
Weight change (Mus musculus [16]): 0.6 g
Weight change (Mus musculus [17]): -0.7 g
Median life span (Mus musculus [18]): 11.4 days
No. of deaths (Mus musculus [19]): 0
Weight change (Mus musculus [20]): 0.8 g
T/C (Mus musculus [21]): 100%
T/C (Mus musculus [22]): 96%
No. of deaths (Mus musculus [23]): 0
No. of deaths (Mus musculus [24]): 0
No. of deaths (Mus musculus [25]): 0
T/C (Mus musculus [26]): 101%
T/C (Mus musculus [27]): 120%
No. of deaths (Mus musculus [28]): 0
